# System: MV-4-11 xenografts
# Assay: MV-4-11 xenograft model of human AML in CD-1 Nude mice
# Format: in vivo
# Details: 0.5 mg/kg IP, QW×4 vs vehicle; p=0.137
# Protocol: Female 8- to 10-week-old CD-1 Nude mice (Charles River Laboratories) with established MV-4-11 xenografts were treated for 21 days (n=8). MV-4-11 cells is a human AML cell line which endogenously expresses a Fms Related Receptor Tyrosine Kinase 3 (FLT3) internal tandem duplication (ITD) mutation. Animal weights were monitored daily, and tumor volume was measured three times per week. Tumor volume (mm^3) was defined as follows, length×width^2/2. Percentage tumor growth inhibition (% TGI) was defined as follows, 100×[1−(TVf,treated−TVi,treated)/(TVf,control−TVi,control)], where TVf is the average tumor volume at the end of study, and TVi is the average tumor volume at the initiation of treatment. In cases where tumor regression occurred, percentage tumor regression was defined as follows, 100×[1−(TVf,treated/TVi,treated)]. At the completion of the study, the mice were sacrificed by an anesthetic overdose. The Institutional Animal Care and Use Committee of the University Health Network approved all animal procedures. […] Data are represented as mean±SEM. p values were calculated using Student's/test.
smiles,measurement,value
"CC[C@]1(O)C[C@H]2CN(CCc3c([nH]c4ccccc34)[C@@](C(=O)OC)(c3cc4c(cc3OC)N(C=O)[C@H]3[C@@](O)(C(=O)OC)[C@H](OC(C)=O)[C@]5(CC)C=CCN6CC[C@]43[C@@H]65)C2)C1 [Vincristine, reference compound]",Day 10 TGI (tumor growth inhibition),62%
